This note sets out measurements from patent US9499538B2, “Estrogen receptor modulators and uses thereof” (Seragon Pharmaceuticals, Inc., priority 2012, dated 2016).

One assay has as its target T1, ER-α in MCF-7 cells (Homo sapiens, UniProt P03372).
T1 construct: endogenous in cells; host or cells: MCF-7
T1 sequence (P03372 1-595): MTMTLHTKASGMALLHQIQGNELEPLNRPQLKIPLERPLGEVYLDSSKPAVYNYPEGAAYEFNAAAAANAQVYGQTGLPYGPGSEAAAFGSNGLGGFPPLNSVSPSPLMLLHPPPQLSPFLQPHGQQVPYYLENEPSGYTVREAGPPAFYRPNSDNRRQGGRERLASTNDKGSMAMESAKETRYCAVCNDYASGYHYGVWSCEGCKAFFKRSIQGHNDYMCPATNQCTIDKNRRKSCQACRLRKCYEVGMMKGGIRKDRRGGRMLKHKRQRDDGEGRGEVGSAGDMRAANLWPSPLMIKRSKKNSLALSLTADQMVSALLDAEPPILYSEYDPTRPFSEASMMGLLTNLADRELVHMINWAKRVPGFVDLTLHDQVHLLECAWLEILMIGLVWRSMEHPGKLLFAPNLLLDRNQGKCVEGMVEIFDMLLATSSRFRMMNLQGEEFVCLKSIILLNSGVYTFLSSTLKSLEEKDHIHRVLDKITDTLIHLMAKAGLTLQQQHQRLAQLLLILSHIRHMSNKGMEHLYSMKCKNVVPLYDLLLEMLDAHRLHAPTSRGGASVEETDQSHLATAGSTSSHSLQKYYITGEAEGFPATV
The assay is described as follows: Breast Cancer Cell ER-α In Cell Western Assay (SP1). In kind it is cell-based. To be noted: 4 or 24 hr post compound addition; for Emax: MCF7, SP1 antibody, read-out: ER-α In Cell Western Assay (SP1) Max Response; for DC50: SP1 antibody, read-out: ER-α In Cell Western Assay (SP1) IC50. Here is the method: MCF-7 cells were adjusted to a concentration of 200,000 cells per mL in RPMI containing 10% charcoal-stripped FBS and 20 mM HEPES. 16 microliters of the cell suspension (3200 cells) was added to each well of a poly-D-lysine 384 well plate, and the cells were incubated overnight to allow the cells to adhere. The following day an eleven point, serial semilog dilution of each compound was added to the cells in 16 μL at a final concentration ranging from 0.3-0.000003 μM. At 4 or 24 hr post compound addition, the cells were fixed (10% formalin in PBS) for 20 minutes. Cells were permeablized in PBS 0.1% Triton and blocked with LICOR blocking buffer (50 μl/well, 90′). The wells were then incubated overnight at 4° C. with SP1 rabbit monoclonal Ab (Thermo Scientific) diluted 1:1000 in LICOR blocking buffer/0.1% Tween-20. Wells which were treated with blocking buffer with Tween but no antibody were used as a background control. Wells were washed with 0.1% Tween-20/PBS and then incubated in goat anti-rabbit IRDye™ 800CW (LICOR Inc.; 1:10000) and DRAQ5 DNA dye (1:2000 for 2 mM stock) diluted in LICOR blocking buffer containing 0.1% Tween-20 and 0.01% SDS for 60 minutes. Cells were washed (50 μl/well, 5′ each) in 0.1% Tween-20/PBS. Plates were scanned on a LICOR Odyssey infrared imaging system. Integrated intensities in the 800 nm channel and 700 nm channel were measured to determine levels of ER and DNA respectively. Percent ER levels were determined as follows: (Integrated intensity 800 nm sample/integrated intensity 700 nm sample)/(Integrated intensity 800 nm untreated cells/integrated intensity 700 nm untreated cells)×100=% ER levels. […]

The test system of another assay is MCF-7 cells. In words: Breast Cancer Cell Viability Assays (MCF-7, CellTiter-Glo). In kind it is cell-based. To be noted: 5 days' compound exposure; for IC50: Homo sapiens, MCF7, 120 h. Here is the method: MCF-7 cells were adjusted to a concentration of 20,000 cells per mL in RPMI containing 10% FBS and 20 mM HEPES. 16 microliters of the cell suspension (320 cells) was added to each well of a 384 well plate, and the cells were incubated overnight to allow the cells to adhere. The following day an eleven point, serial semilog dilution of each compound was added to the cells in 16 μL at a final concentration ranging from 0.3-0.000003 μM. After 5 days' compound exposure, 16 μL of CellTiter-GLo (Promega, Madison Wis.) was added to the cells, and the relative luminescence units (RLUs) of each well were determined. CellTiter-Glo added to 32 μL of medium without cells was used to obtain a background value. The Percent viability of each sample was determined as follows: (RLU sample−RLU background/RLU untreated cells−RLU background)×100=% viability. […]
A general note: Cellular ATP, detected with luciferase, serves as a proxy for viable cell number.

By IC50 is commonly meant the concentration that gives 50% inhibition.

On to `O=C(O)/C=C/c1ccc(/C(=C(\c2ccc(F)cc2Cl)C2CCC2)c2ccc3[nH]ncc3n2)cc1` [Example 34, (E)-3-(4-((E)-2-(2-Chloro-4-fluorophenyl)-2-cyclobutyl-1-(1H-pyrazolo[4,3-b]pyridin-5-yl)vinyl)phenyl)acrylic acid], for which, at ER-α in MCF-7 cells, the Emax is no less than 40% and the DC50 is no more than 100 nM. In addition, in the assay on MCF-7 cells, the “MCF7 Viability Assay Max Response” value is given as “++ (++ = a single % value ≧ 40%)” and the IC50 was no more than 100 nM.

Take `CC(C)/C(=C(/c1ccc(/C=C/C(=O)O)cc1)c1ccc2[nH]ncc2c1)c1ccccc1Cl` [Example 35, (E)-3-(4-((E)-2-(2-Chlorophenyl)-1-(1H-indazol-5-yl)-3-methylbut-1-en-1-yl)phenyl)acrylic acid]: at ER-α in MCF-7 cells, the Emax was no less than 40% and the DC50 is no more than 100 nM. Further, in the assay with MCF-7 cells, the “MCF7 Viability Assay Max Response” value is recorded as “++ (++ = a single % value ≧ 40%)” and the IC50 is no more than 100 nM.

Regarding `O=C(O)/C=C/c1ccc(/C(=C(\c2ccccc2)C2CCC2)c2ccc3[nH]nc(F)c3c2)cn1` [Example 36, (E)-3-(5-((Z)-2-Cyclobutyl-1-(3-fluoro-1H-indazol-5-yl)-2-phenylvinyl)pyridin-2-yl)acrylic acid], at ER-α in MCF-7 cells, the Emax is no less than 40% and the DC50 is no more than 100 nM. Besides, in the assay with MCF-7 cells, the “MCF7 Viability Assay Max Response” value is on record as “++ (++ = a single % value ≧ 40%)” and the 50% inhibitory concentration (IC50) is no more than 100 nM.

Consider `Cc1cc(/C(=C(\c2ccccc2)C2CCC2)c2ccc3[nH]nc(F)c3c2)ccc1/C=C/C(=O)O` [Example 37, (E)-3-(4-((E)-2-Cyclobutyl-1-(3-fluoro-1H-indazol-5-yl)-2-phenylvinyl)-2-methylphenyl)acrylic acid], for which, on ER-α in MCF-7 cells, the Emax is no less than 40% and the DC50 was no more than 100 nM. Besides, in the assay on MCF-7 cells, the “MCF7 Viability Assay Max Response” value is “++ (++ = a single % value ≧ 40%)” and the IC50 is no more than 100 nM.

Consider `COc1cc(/C=C/C(=O)O)ccc1/C(=C(\c1ccccc1)C1CCC1)c1ccc2[nH]nc(F)c2c1` [Example 38, (E)-3-(4-((Z)-2-Cyclobutyl-1-(3-fluoro-1H-indazol-5-yl)-2-phenylvinyl)-3-methoxyphenyl)acrylic acid], for which, on ER-α in MCF-7 cells, the Emax was no less than 40% and the DC50 was no more than 100 nM. For the same compound, in the assay with MCF-7 cells, the “MCF7 Viability Assay Max Response” value is on record as “++ (++ = a single % value ≧ 40%)” and the IC50 was no more than 100 nM.

As for `Fc1n[nH]c2ccc(/C(=C(/c3ccccc3)C3CCC3)c3ccc(/C=C/c4cnc[nH]4)cc3)cc12` [Example 39, 5-((E)-1-(4-((E)-2-(1H-Imidazol-5-yl)vinyl)phenyl)-2-cyclobutyl-2-phenylvinyl)-3-fluoro-1H-indazole], on ER-α in MCF-7 cells, the Emax was no less than 40% and the DC50 was no more than 100 nM. In the assay with MCF-7 cells, the “MCF7 Viability Assay Max Response” value is “++ (++ = a single % value ≧ 40%)” and the IC50 was no more than 100 nM.

As for `N#Cc1ccc(/C(=C(\c2ccc(/C=C/C(=O)O)cc2)c2ccc3[nH]nc(F)c3c2)C2CCC2)c(Cl)c1` [Example 40, (E)-3-(4-((E)-2-(2-Chloro-4-cyanophenyl)-2-cyclobutyl-1-(3-fluoro-1H-indazol-5-yl)vinyl)phenyl)acrylic acid], at ER-α in MCF-7 cells, the Emax is no less than 40% and the DC50 is no more than 100 nM. Also, in the assay on MCF-7 cells, the “MCF7 Viability Assay Max Response” value was “++ (++ = a single % value ≧ 40%)” and the IC50 is no more than 100 nM.

Regarding `CC/C(=C(/c1ccc(/C=C/C(=O)O)cc1)c1ccc2[nH]ncc2c1)c1cccc(S(=O)(=O)C(F)(F)F)c1` [Example 41, (E)-3-(4-((E)-1-(1H-Indazol-5-yl)-2-(3-((trifluoromethyl)sulfonyl)phenyl)but-1-en-1-yl)phenyl)acrylic acid], at ER-α in MCF-7 cells, the Emax is no less than 40% and the DC50 was no more than 100 nM. Further, in the assay on MCF-7 cells, the “MCF7 Viability Assay Max Response” value is reported as “++ (++ = a single % value ≧ 40%)” and the IC50 was no more than 100 nM.

Take `COc1ccc(/C(=C(\c2ccc(/C=C/C(=O)O)cc2)c2ccc3[nH]ncc3c2)C2CCC2)c(C#N)c1` [Example 42, (E)-3-(4-((E)-2-(2-Cyano-4-methoxyphenyl)-2-cyclobutyl-1-(1H-indazol-5-yl)vinyl)phenyl)acrylic acid]: at ER-α in MCF-7 cells, the Emax was no less than 40% and the DC50 was no more than 100 nM. Moreover, in the assay with MCF-7 cells, the “MCF7 Viability Assay Max Response” value is recorded as “++ (++ = a single % value ≧ 40%)” and the IC50 is no more than 100 nM.

For the compound `N#Cc1ccc(/C(=C(\c2ccc(/C=C/C(=O)O)cc2)c2ccc3[nH]ncc3c2)C2CCC2)c(Cl)c1` [Example 43, (E)-3-(4-((E)-2-(2-Chloro-4-cyanophenyl)-2-cyclobutyl-1-(1H-indazol-5-yl)vinyl)phenyl)acrylic acid], at ER-α in MCF-7 cells, the Emax was no less than 40% and the DC50 was no more than 100 nM. Also, in the assay on MCF-7 cells, the “MCF7 Viability Assay Max Response” value is “++ (++ = a single % value ≧ 40%)” and the IC50 is no more than 100 nM.

On to `COc1ccc(/C(=C(\c2ccc(/C=C/C(=O)O)cc2)c2ccc3[nH]nc(F)c3c2)C2CCC2)c(C#N)c1` [Example 44, (E)-3-(4-((E)-2-(2-Cyano-4-methoxyphenyl)-2-cyclobutyl-1-(3-fluoro-1H-indazol-5-yl)vinyl)phenyl)acrylic acid], for which, at ER-α in MCF-7 cells, the Emax is no less than 40% and the DC50 is no more than 100 nM. Besides, in the assay on MCF-7 cells, the “MCF7 Viability Assay Max Response” value is “++ (++ = a single % value ≧ 40%)” and the IC50 is no more than 100 nM.

Turning to `O=C(O)/C=C/c1ccc(/C(=C(\c2cccc(S(=O)(=O)C(F)(F)F)c2)C2CCC2)c2ccc3[nH]nc(F)c3c2)cc1` [Example 45, (E)-3-(4-((E)-2-Cyclobutyl-1-(3-fluoro-1H-indazol-5-yl)-2-(3-((trifluoromethyl)sulfonyl)phenyl)vinyl)phenyl)acrylic acid], on ER-α in MCF-7 cells, the Emax was no less than 40% and the DC50 was no more than 100 nM. Besides, in the assay with MCF-7 cells, the “MCF7 Viability Assay Max Response” value was “++ (++ = a single % value ≧ 40%)” and the IC50 is no more than 100 nM.

For `Cc1cnccc1/C(=C(\c1ccc(/C=C/C(=O)O)cc1)c1ccc2[nH]nc(F)c2c1)C1CCC1` [Example 46, (E)-3-(4-((E)-2-Cyclobutyl-1-(3-fluoro-1H-indazol-5-yl)-2-(3-methylpyridin-4-yl)vinyl)phenyl)acrylic acid], at ER-α in MCF-7 cells, the Emax is no less than 40% and the DC50 is no more than 100 nM. Moreover, in the assay on MCF-7 cells, the “MCF7 Viability Assay Max Response” value is on record as “++ (++ = a single % value ≧ 40%)” and the half-inhibitory concentration (IC50) is no more than 100 nM.

Turning to `O=C(O)/C=C/c1ccc(/C(=C(\c2ccncc2C(F)(F)F)C2CCC2)c2ccc3[nH]nc(F)c3c2)cc1` [Example 47, (E)-3-(4-((E)-2-Cyclobutyl-1-(3-fluoro-1H-indazol-5-yl)-2-(3-(trifluoromethyl)pyridin-4-yl)vinyl)phenyl)acrylic acid], at ER-α in MCF-7 cells, the Emax is no less than 40% and the DC50 was no more than 100 nM. Moreover, in the assay on MCF-7 cells, the “MCF7 Viability Assay Max Response” value is “++ (++ = a single % value ≧ 40%)” and the IC50 is no more than 100 nM.

As to `N#Cc1ccc(/C(=C(\c2ccc(/C=C/C(=O)O)cc2)c2ccc3[nH]nc(F)c3c2)C2CCC2)c(F)c1` [Example 48, (E)-3-(4-((E)-2-(4-Cyano-2-fluorophenyl)-2-cyclobutyl-1-(3-fluoro-1H-indazol-5-yl)vinyl)phenyl)acrylic acid], on ER-α in MCF-7 cells, the Emax is no less than 40% and the DC50 is no more than 100 nM. In the assay on MCF-7 cells, the “MCF7 Viability Assay Max Response” value is “++ (++ = a single % value ≧ 40%)” and the IC50 was no more than 100 nM.
